Test results: US7282489B2, “Compositions and methods for performing reverse gene therapy” (The Children's Hospital of Philadelphia, priority 2000, dated 2007)

Columns and labels:
Q9E-hMiRP1 channels [1] = target: T1, Q9E-hMiRP1 channels (Homo sapiens, UniProt Q12809); experiment: Whole cell voltage clamp, HEK293 cells stably expressing HERG and Q9E-hMiRP1; type: cell-based; details: HEK293 cells overexpressing Q9E-hMiRP1, activation at +20 mV; read-out: Dose leading to half blockade of peak outward currents
T1 construct: expressed in transfected cells; host or cells: HEK293 stably expressing HERG, stably co-transfected with pIRES2-EGFP-Q9E-hMiRP1-FLAG
T1 sequence (Q12809 whole entry): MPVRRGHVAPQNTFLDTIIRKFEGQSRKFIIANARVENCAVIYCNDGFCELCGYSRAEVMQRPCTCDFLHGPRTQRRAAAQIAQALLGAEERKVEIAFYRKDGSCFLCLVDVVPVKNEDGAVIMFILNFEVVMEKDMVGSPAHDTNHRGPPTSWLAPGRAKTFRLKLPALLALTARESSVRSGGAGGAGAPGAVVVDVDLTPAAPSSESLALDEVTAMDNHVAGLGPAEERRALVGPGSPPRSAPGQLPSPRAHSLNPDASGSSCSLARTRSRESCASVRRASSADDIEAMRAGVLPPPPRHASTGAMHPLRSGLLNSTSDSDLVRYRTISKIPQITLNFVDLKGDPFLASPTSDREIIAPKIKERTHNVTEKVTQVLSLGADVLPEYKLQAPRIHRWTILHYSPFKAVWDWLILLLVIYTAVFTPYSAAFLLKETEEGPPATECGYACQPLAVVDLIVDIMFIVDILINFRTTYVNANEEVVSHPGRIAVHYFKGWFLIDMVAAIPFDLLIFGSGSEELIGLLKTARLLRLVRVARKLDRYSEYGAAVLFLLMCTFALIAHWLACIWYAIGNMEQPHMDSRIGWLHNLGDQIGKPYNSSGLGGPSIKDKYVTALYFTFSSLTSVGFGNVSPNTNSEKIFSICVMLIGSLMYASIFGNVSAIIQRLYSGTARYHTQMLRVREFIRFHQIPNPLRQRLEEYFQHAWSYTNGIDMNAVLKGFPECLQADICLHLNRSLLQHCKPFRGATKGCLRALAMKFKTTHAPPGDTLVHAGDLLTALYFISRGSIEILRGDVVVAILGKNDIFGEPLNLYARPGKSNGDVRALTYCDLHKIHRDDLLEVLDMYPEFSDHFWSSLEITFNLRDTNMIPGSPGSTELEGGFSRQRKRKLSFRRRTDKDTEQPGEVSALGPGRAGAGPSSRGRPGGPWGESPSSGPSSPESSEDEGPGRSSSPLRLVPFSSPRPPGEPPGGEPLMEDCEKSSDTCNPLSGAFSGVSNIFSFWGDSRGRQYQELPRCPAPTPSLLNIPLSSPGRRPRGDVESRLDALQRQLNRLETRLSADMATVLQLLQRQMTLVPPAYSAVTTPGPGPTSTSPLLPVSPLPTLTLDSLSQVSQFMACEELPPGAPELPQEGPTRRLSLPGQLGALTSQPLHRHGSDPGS
T1 sequence (Q9Y6J6 whole entry Q9E, further chain): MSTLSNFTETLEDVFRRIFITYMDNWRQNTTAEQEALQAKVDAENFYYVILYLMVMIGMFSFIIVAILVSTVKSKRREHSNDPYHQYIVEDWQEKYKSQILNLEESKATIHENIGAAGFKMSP
Description: (§1) Electrophysiology Methods: HEK293 cells that stably express HERG, but not hMiRP1 (Zhou, et al., 1999) were also stably co-transfected with either hMiRP1 or Q9E-hMiRP1 and subsequently were analyzed for channel function by single cell patch clamping using voltage clamp conditions. The data were analyzed at a sampling rate of 4 kHz and filtered at 1 kHz using Pclamp software version 6.0 (Axon Instruments, Foster City, Calif.). Leak correction was not performed, and therefore unaltered data are shown. All experiments were performed at 25° C. Protocols for steady-state activation and isochronal peak currents, and clarithromycin incubations were performed as described by Abbott et al., 1999. Initial studies were performed in buffer containing 95 mM KCl, 5 mM NaCl, 1 mM MgCl2, 0.3 mM CaCl2, and 10 mM HEPES (pH 7.6). For whole cell recordings, pipettes contained 100 mM KCl, 1 mM MgCl2, 10 mM HEPES, and 2 mM EGTA (pH 7.5). A 50 mM Clarithromycin (American Bioanalytical, Natick, Mass.) stock in DMSO was diluted in bath solution.

Q9E-hMiRP1 channels [2] = target: T2, Q9E-hMiRP1 channels (Homo sapiens, UniProt Q12809+Q9Y6J6, Q9E); experiment: as above; type: cell-based
T2 construct: expressed in transfected cells; host or cells: HEK293 stably expressing HERG, stably co-transfected with pIRES2-EGFP-Q9E-hMiRP1-FLAG
T2 sequence (Q12809 whole entry): as the sequence (Q12809 whole entry) above
T2 sequence (Q9Y6J6 whole entry Q9E): as the sequence (Q9Y6J6 whole entry Q9E, further chain) above
Description: as §1

Q9E-hMiRP1 channels [3] = target: T2, Q9E-hMiRP1 channels; details: patch clamp studies, Abbott et al, 1999; cited from earlier work
[4] = target: T3, channels formed with wild-type hMiRP1 (Homo sapiens, UniProt Q12809); experiment: Whole cell voltage clamp, HEK293 cells stably expressing HERG and wild type hMiRP1; type: cell-based; details: wild-type hMiRP1, activation at +20 mV, read-out: Dose causing half block of the peak outward currents
T3 construct: expressed in transfected cells; host or cells: HEK293 stably expressing HERG, stably co-transfected with pIRES2-EGFP-hMiRP1-FLAG
T3 sequence (Q12809 whole entry): as the sequence (Q12809 whole entry) above
T3 sequence (Q9Y6J6 whole entry, further chain): as the sequence (Q9Y6J6 whole entry Q9E, further chain) above, with E9Q counted along it
Description: as §1

[5] = test system: re-entrant atrial flutter; experiment: Y-atriotomy model for re-entrant atrial flutter, burst atrial pacing; type: in vivo, dog; details: dogs systemically administered a dose of ibutilide equivalent to that provided by the polymer

Compound	IC50 (Q9E-hMiRP1 channels [1])	Effect on I/I max with increased voltages (Q9E-hMiRP1 channels [2]; 1.0 mM clarithromycin, Q9E-hMiRP1 stable cells, groups of 4 cells)	Clarithromycin effect in Q9E-hMiRP1 cells relative to wild type hMiRP1 cells (Q9E-hMiRP1 channels [2]; HEK293 cells)	Effect on peak outward currents (Q9E-hMiRP1 channels [2]; HEK293 cells over-expressing Q9E-hMiRP1, whole cell voltage clamp)	Sensitivity of Q9E-hMiRP1 channels to clarithromycin induced diminution of potassium currents relative to wild type (Q9E-hMiRP1 channels [3])	IC50 [4]	Inhibition of inducibility of atrial flutter [5]
CC[C@H]1OC(=O)[C@H](C)[C@@H](O[C@H]2C[C@@](C)(OC)[C@@H](O)[C@H](C)O2)[C@H](C)[C@@H](O[C@@H]2O[C@H](C)C[C@H](N(C)C)[C@H]2O)[C@](C)(OC)C[C@@H](C)C(=O)[C@H](C)[C@@H](O)[C@]1(C)O [clarithromycin, Clarithromycin]	< 1000 µM	blocked increases in I/I max with increased voltages	many-fold greater	reduced peak outward currents	3 fold	~2000 µM	
CCCCCCCN(CC)CCCC(O)c1ccc(NS(C)(=O)=O)cc1 (stereo not shown) [ibutilide, Ibutilide]							No significant inhibition
